Among the test systems are 786-0 renal; EKVX NSCLC; HCC-2998 colon; IGROV1 ovarian; OVCAR-5 ovarian; SF-539 CNS; SK-MEL-28 melanoma; SK-MEL-5 melanoma; SR leukemia; SF-268 CNS.
Test in all cases: growth of human tumour cells (NCI), 48 h

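Following 48 hours of exposure in 96-well plates, responses at five concentrations were used to interpolate endpoints linearly. Here, GI50 denotes the concentration required for 50% inhibition of growth. TGI is the concentration that stops growth completely.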

Turning to `COc1c(I)c(OC)c2c(c1I)O[C@@H]1OCC[C@H]21`, the TGI is over 100 µM with 786-0 renal; over 100 µM in the experiment on EKVX NSCLC; 78.6 µM in the experiment with HCC-2998 colon; over 100 µM in the experiment with IGROV1 ovarian; over 100 µM with OVCAR-5 ovarian; over 100 µM with SF-539 CNS. In addition, the TGI in the experiment with SK-MEL-28 melanoma came to 97 µM; in the experiment on SK-MEL-5 melanoma, 27.2 µM; with SR leukemia, 45.2 µM.
For `O=C(c1ccc([N+](=O)[O-])cc1)C(Br)C(Br)c1ccnc2ccccc12` (stereo not given), the TGI with 786-0 renal worked out at 7.44 µM; in the experiment with EKVX NSCLC, 34.3 µM; with IGROV1 ovarian, 30 µM; in the experiment with OVCAR-5 ovarian, 33 µM; with SF-268 CNS, 45.2 µM; with SF-539 CNS it was 15.3 µM. Moreover, the TGI was 30.8 µM in the experiment on SK-MEL-28 melanoma, 20 µM in the experiment with SK-MEL-5 melanoma and 5.69 µM with SR leukemia.
As for `O=C1C=C(OCC=C(C(F)(F)F)C(F)(F)F)c2ccccc2C1=O`, the GI50 is 3.97 µM in the experiment with 786-0 renal; 1.84 µM with HCC-2998 colon; 2.45 µM with OVCAR-5 ovarian; 2.53 µM with SF-268 CNS; 1.84 µM in the experiment with SF-539 CNS; 1.87 µM with SK-MEL-28 melanoma. In addition, the GI50 with SK-MEL-5 melanoma is 1.51 µM; with SR leukemia, 2.02 µM. In addition, the TGI with 786-0 renal amounted to 13.9 µM; in the experiment on HCC-2998 colon, 3.73 µM; in the experiment on OVCAR-5 ovarian, 5.87 µM; with SF-268 CNS, 7.42 µM; with SF-539 CNS, 3.63 µM; in the experiment on SK-MEL-28 melanoma it was 3.61 µM. Also, the TGI in the experiment on SK-MEL-5 melanoma was found to be 2.95 µM; with SR leukemia, 7.43 µM.
Regarding `COc1ccc(C2C(C#N)=C(N)Oc3c2sc2c(Br)cccc32)cc1` (stereo not given), the GI50 was 3.25 µM with 786-0 renal; 4.38 µM with EKVX NSCLC; 1.64 µM in the experiment with HCC-2998 colon; 2.29 µM with IGROV1 ovarian; 8.95 µM in the experiment on OVCAR-5 ovarian; 4.62 µM with SF-268 CNS. For the same molecule, the figures for the GI50 in the experiment on SK-MEL-28 melanoma, in the experiment with SK-MEL-5 melanoma and with SR leukemia were 8.15 µM, 2.4 µM and 0.473 µM, respectively. The TGI was determined as 13 µM in the experiment on 786-0 renal; 21 µM in the experiment on EKVX NSCLC; 6.25 µM in the experiment with HCC-2998 colon; 20.9 µM in the experiment on IGROV1 ovarian; 26.5 µM in the experiment with OVCAR-5 ovarian; 21.5 µM in the experiment with SF-268 CNS. Moreover, the TGI in the experiment on SK-MEL-28 melanoma stood at 24.1 µM; in the experiment with SK-MEL-5 melanoma it was 10.7 µM; in the experiment with SR leukemia it was 3.37 µM.
On to `COc1cc([N+](=O)[O-])c(S(=O)(=O)O)cc1-n1nc(C(=O)Nc2ccccc2)n[n+]1-c1cc(S(=O)(=O)[O-])c([N+](=O)[O-])cc1OC`, for which the TGI in the experiment on 786-0 renal, in the experiment on EKVX NSCLC, in the experiment on IGROV1 ovarian, in the experiment with OVCAR-5 ovarian, in the experiment with SF-268 CNS and in the experiment on SK-MEL-28 melanoma was over 100 µM throughout. The TGI with SK-MEL-5 melanoma and in the experiment on SR leukemia was over 100 µM each time.
Turning to `CCCc1nc(Cl)c(Cl)c(Cl)n1`, the TGI in the experiment on 786-0 renal was over 31.6 µM; in the experiment on EKVX NSCLC it was 43.7 µM; with IGROV1 ovarian it was 50.4 µM; in the experiment on OVCAR-5 ovarian, 97.9 µM; in the experiment with SF-268 CNS, 33.4 µM; in the experiment with SF-539 CNS, 68.6 µM. Further, the values for the TGI in the experiment with SK-MEL-28 melanoma, in the experiment on SK-MEL-5 melanoma and in the experiment with SR leukemia were over 100 µM, over 100 µM and over 50.7 µM, respectively.
Take `NC(Cc1c[nH]c2ccc([N+](=O)[O-])cc12)C(=O)O` (stereo not given): the TGI in the experiment with 786-0 renal, in the experiment with EKVX NSCLC, with IGROV1 ovarian, with OVCAR-5 ovarian, in the experiment with SF-268 CNS and in the experiment with SK-MEL-28 melanoma was over 100 µM in each case. The TGI in the experiment on SK-MEL-5 melanoma and with SR leukemia was over 100 µM in each case.
As for `Cc1nc2sc3c(N)ncnc3c2c(C)c1C`, the GI50 in the experiment on 786-0 renal, in the experiment with HCC-2998 colon, in the experiment on IGROV1 ovarian, in the experiment with OVCAR-5 ovarian, with SF-268 CNS and in the experiment on SF-539 CNS was over 25 µM in each case. Moreover, the GI50 in the experiment with SK-MEL-28 melanoma, in the experiment on SK-MEL-5 melanoma and with SR leukemia was over 25 µM throughout. Moreover, the TGI in the experiment on 786-0 renal, in the experiment on HCC-2998 colon, in the experiment on IGROV1 ovarian, in the experiment with OVCAR-5 ovarian, in the experiment on SF-268 CNS and with SF-539 CNS was over 25 µM in each case. Further, the TGI in the experiment on SK-MEL-28 melanoma, with SK-MEL-5 melanoma and with SR leukemia was over 25 µM in each case.
For `Cn1cc(C2=C(c3cn(CCCN)c4ccccc34)C(=O)NC2=O)c2ccccc21`, the GI50 in the experiment on 786-0 renal is 4.75 µM; with HCC-2998 colon, 5.84 µM; with IGROV1 ovarian, 8.95 µM; in the experiment on OVCAR-5 ovarian, 9.52 µM; with SF-268 CNS, 5.33 µM; in the experiment with SF-539 CNS it was 3.44 µM. The figures for the GI50 in the experiment on SK-MEL-28 melanoma, with SK-MEL-5 melanoma and with SR leukemia were 4.7 µM, 3.77 µM and 2.53 µM, respectively. Besides, the TGI in the experiment with 786-0 renal was 14.2 µM; with HCC-2998 colon it was 16.2 µM; with IGROV1 ovarian, over 19.7 µM; in the experiment with OVCAR-5 ovarian it was over 25 µM; in the experiment on SF-268 CNS it was 12.8 µM; in the experiment with SF-539 CNS, 6.86 µM. The TGI was determined as 9.3 µM in the experiment on SK-MEL-28 melanoma, 7.26 µM with SK-MEL-5 melanoma and 13.8 µM in the experiment on SR leukemia.
As to `CCC(=O)N1C/C(=C/c2ccc(Br)cc2)C(=O)/C(=C/c2ccc(Br)cc2)C1`, the GI50 in the experiment on 786-0 renal is 0.546 µM; with HCC-2998 colon, 0.802 µM; in the experiment on IGROV1 ovarian it was 0.766 µM; in the experiment on OVCAR-5 ovarian it was 1.32 µM; in the experiment with SF-268 CNS, 0.902 µM; in the experiment on SF-539 CNS, 0.706 µM. The GI50 is 1.53 µM in the experiment on SK-MEL-28 melanoma and 0.996 µM in the experiment with SK-MEL-5 melanoma. Also, the TGI amounted to 1.2 µM with 786-0 renal; 2.09 µM in the experiment on HCC-2998 colon; 2.27 µM in the experiment with IGROV1 ovarian; 3.22 µM in the experiment on OVCAR-5 ovarian; 3.06 µM with SF-268 CNS; 1.79 µM in the experiment on SF-539 CNS. In addition, the results for the TGI in the experiment on SK-MEL-28 melanoma, with SK-MEL-5 melanoma and in the experiment on SR leukemia were 3.13 µM, 2.45 µM and 1.02 µM, respectively.

The values above are taken from PubChem BioAssay (NCI).
